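Five compound concentrations were applied to cells in 96-well plates for 48 hours; endpoints were derived by simple linear interpolation of the resulting dose-response curve. GI50: concentration for 50% inhibition of growth.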 Activity calls are given as the source filed them. Cut-off read from the data, not from the text of the source: active = GI50 up to about 1.1 µM and inactive = higher.
Legend:
Assay in all cases: NCI-60 cell line screen, 48 h
MOLT-4 = system: MOLT-4
SK-MEL-28 = system: SK-MEL-28
T47D = system: T47D
HL-60 = system: HL-60
COLO 205 = system: COLO 205
SK-MEL-5 = system: SK-MEL-5
NCI-H460 = system: NCI-H460
OVCAR-3 = system: OVCAR-3
SK-MEL-2 = system: SK-MEL-2
SNB-75 = system: SNB-75
UACC-257 = system: UACC-257
HT-29 = system: HT-29
IGROV-1 = system: IGROV-1
BT-549 = system: BT-549
A498 = system: A498
A549 = system: A549
OVCAR-4 = system: OVCAR-4
LOX IMVI = system: LOX IMVI
NCI/ADR-RES = system: NCI/ADR-RES
HOP-92 = system: HOP-92

| Compound | GI50 (MOLT-4) | GI50 (SK-MEL-28) | GI50 (T47D) | GI50 (HL-60) | GI50 (COLO 205) | GI50 (SK-MEL-5) | GI50 (NCI-H460) | GI50 (OVCAR-3) | GI50 (SK-MEL-2) | GI50 (SNB-75) | GI50 (UACC-257) | GI50 (HT-29) | GI50 (IGROV-1) | GI50 (BT-549) | GI50 (A498) | GI50 (A549) | GI50 (OVCAR-4) | GI50 (LOX IMVI) | GI50 (NCI/ADR-RES) | GI50 (HOP-92) |
| --- | --- | --- | --- | --- | --- | --- | --- | --- | --- | --- | --- | --- | --- | --- | --- | --- | --- | --- | --- | --- |
| Nc1ncnc2c1ncn2C1OC(CO)C(O)C1N (stereo not given) | > 100 µM (inactive) | > 100 µM (inactive) | > 100 µM (inactive) | > 100 µM (inactive) | > 100 µM (inactive) | > 100 µM (inactive) | > 100 µM (inactive) | > 100 µM (inactive) | > 100 µM (inactive) | > 100 µM (inactive) | > 100 µM (inactive) | > 100 µM (inactive) | > 100 µM (inactive) | > 100 µM (inactive) | > 100 µM (inactive) | > 100 µM (inactive) | > 100 µM (inactive) | > 100 µM (inactive) | > 100 µM (inactive) | > 100 µM (inactive) |
| O=C(/C=C/c1ccc(OCc2ccccc2)c(OCc2ccccc2)c1)OCc1ccccc1 | > 100 µM (inactive) | > 100 µM (inactive) | > 100 µM (inactive) | > 100 µM (inactive) | > 100 µM (inactive) | > 100 µM (inactive) | > 100 µM (inactive) | > 100 µM (inactive) | > 100 µM (inactive) | > 100 µM (inactive) | > 100 µM (inactive) | > 100 µM (inactive) | > 100 µM (inactive) | > 100 µM (inactive) | > 100 µM (inactive) | > 100 µM (inactive) | > 100 µM (inactive) | > 100 µM (inactive) | > 100 µM (inactive) | > 100 µM (inactive) |
| CCOc1ccc2nc(NC(=O)C(=O)C(C(=O)c3ccccc3-c3ccccc3)C3OC(=O)c4ccccc43)sc2c1 (stereo not given) | 13.2 µM (inactive) | 20.2 µM (inactive) | 13.9 µM (inactive) | 22.8 µM (inactive) | 19.4 µM (inactive) | 16.2 µM (inactive) | 19.5 µM (inactive) | 18.7 µM (inactive) | 17.8 µM (inactive) | 21.3 µM (inactive) | 22.4 µM (inactive) | 19.4 µM (inactive) | 26.7 µM (inactive) | 16.7 µM (inactive) | 22.1 µM (inactive) | 26.4 µM (inactive) | 35.2 µM (inactive) | 17.5 µM (inactive) | 12.1 µM (inactive) | 17.5 µM (inactive) |
| CC(=O)c1c(SCCN2CCCCCC2)n(-c2ccccc2)c(=S)n(-c2ccccc2)c1=O | 2.16 µM (inactive) | 11.2 µM (inactive) | 2.31 µM (inactive) | 0.019 µM (active) | 2.03 µM (inactive) | 9.68 µM (inactive) | 24.7 µM (inactive) | 3.13 µM (inactive) | 19.4 µM (inactive) | 13.8 µM (inactive) | 4.07 µM (inactive) | 7.4 µM (inactive) | 8.3 µM (inactive) | 16.6 µM (inactive) | 13.4 µM (inactive) | 6.82 µM (inactive) | 20.9 µM (inactive) | 3.16 µM (inactive) | 34.5 µM (inactive) | 6.53 µM (inactive) |
| O=C(c1cccs1)N1CCN(C(=O)c2cccs2)C1=S | 3.24 µM (inactive) | 5.13 µM (inactive) | 4.15 µM (inactive) | 2.23 µM (inactive) | 7.35 µM (inactive) | 4.59 µM (inactive) | 6.75 µM (inactive) | 2.94 µM (inactive) | 11.9 µM (inactive) | 2.28 µM (inactive) | 6.19 µM (inactive) | 6.71 µM (inactive) | 6.7 µM (inactive) | 5.4 µM (inactive) | 15.1 µM (inactive) | 3.96 µM (inactive) | 16.9 µM (inactive) | 2.86 µM (inactive) | 16.7 µM (inactive) | 7.19 µM (inactive) |

Reference: ChEMBL document CHEMBL1201862, “PubChem BioAssay data set” (2004)
